Test results: patent US10806794B2, “Protease inhibitors having enhanced features” (priority 2008, dated 2020)
Several values for one entry are separate records, joined by “and”; a condition that tells them apart may be missing. Identical values can stand only once. Like-named read-outs stand apart in the source and are kept apart here.

Columns and labels:
[1] = test system: HIV-1Ba-L; experiment: Anti-HIV-1 activity in monocyte-derived dendritic cells (reverse transcriptase activity); type: cell-based
Protocol: Freshly separated human PBMCs from a single donor were suspended in DPBS at 4×10^6 cells/mL and incubated in a 75 cm^2 cell culture flask for 90 minutes at 37° C., 5% CO2. Non-adherent cells were removed by washing with DPBS. Differentiation to dendritic cells was induced by 7 day incubation in RPMI 1640 medium supplemented with 10% fetal bovine serum, 2 mmol/L L-glutamine, 25 mM HEPES, 100 Units/mL penicllin, 10 μg/mL streptomycin, 50 ng/mL recombinant human granulocyte-macrophage-colony stimulating factor (GM-CSF), and 50 ng/mL recombinant human Interleukin (IL)-4 at 37° C., 5% CO2. The cells were further incubated for two days in the same cytokine cocktail supplemented with 10 ng/mL lipopolysaccharide (LPS). The monocyte-derived dendritic cells were then suspended at 10×10^6 cells/mL in complete medium (RPMI 1640 medium supplemented with 10% fetal bovine serum, 2 mmol/L L-glutamine, 25 mM HEPES, 100 Units/mL penicllin, 10 μg/mL streptomycin) and infected for 2 h at 37 C, 5% CO2 with HIV-1Ba-L at MOI=50-150 TCID50. […] Compound diluted in complete medium was added to cells. After seven days in culture, HIV-1 replication was quantified by measuring HIV-1 reverse transcriptase activity in cell-free supernatants using a standard radioactive tritiated thymidine triphosphate (TTP) polymerization incorporation assay. For each reaction, 1 μL of TTP (1 Ci/mL) was combined with 4 μL of dH2O, 2.5 μL of poly rA and oligo dT (0.5 mg/mL and 1.7 Units/mL, respectively), and 2.5 μL reaction buffer (125 μL 1 mol/L EGTA, 125 μL dH2O, 125 μL 20% Triton X-100, 50 μL 1 mol/L Tris, pH 7.4, 50 μL 1 mol/L DTT, 40 μL 1 mol/L MgCl2), then 10 μL of the resulting mixture was combined with 15 µL of virus-containing supernatant in a round-bottom microtiter plate and the plate incubated at 37° C. in a humidified incubator for 90 minutes. Following incubation, 10 μL of the reaction volume was spotted onto a DEAD filter mat, then washed 5×5 min with 5% sodium phosphate buffer, 2×1 minute in distilled water, 2×1 minute in 70% ethanol, then air dried. The filter mat was incubated with Opti-Fluor O scintillation fluid, and radioactivity quantified using a Wallac 1450 Microbeta Trilux liquid scintillation counter.

[2] = test system: HIV-1 HT/92/599; experiment: HIV-1 reverse transcriptase activity after infection of fresh human PBMCs; type: cell-based
Outline: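 PHA-P/IL-2-stimulated fresh human PBMCs infected with HIV-1; supernatant reverse transcriptase activity measured by tritiated TTP incorporation on poly rA/oligo dT, 90 min at 37° C. Toxicity from 7-day uninfected PBMC culture read by XTT; TI = TC50/EC50.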

[3] = test system: HIV-1BaL; experiment: HIV-1 p24 levels after infection of fresh human monocyte/macrophages; type: cell-based
Protocol: Mononuclear cells were isolated from fresh human peripheral blood cells by Ficoll-Hypaque density gradient by centrifugation at 600 g for 30 minutes. Banded peripheral blood mononuclear cells (PBMCs) were aspirated from the resulting interface and washed with phosphate buffered saline by low speed centrifugation. […] Cells were allowed to attach for 2 to 12 h at 37° C., then washed with Dulbecco's phosphate buffered saline (DPBS). Monocyte-macrophage monolayer formation was induced by incubation in growth medium (RPMI 1640 medium supplemented with 10% fetal bovine serum, 2 mmol/L L-glutamine, 100 Units/mL penicllin and 10 μg/mL streptomycin) for 7 days. Residual PBMCs were removed by washing the cell monolayers with DPBS. After washing, test compound diluted in growth medium was added to cells. Immediately following test compound addition, HIV-1 virus was added to the cells at multiplicity of infection (MOI)=0.05-0.10. After 7 days in culture, HIV-1 replication was quantified by ELISA measurement of cell-free HIV-1 viral capsid protein (p24) in the tissue culture supernatant of treated monocyte-macrophage monolayers. ELISA to quantify p24 was performed according to manufacturer's instructions (Perkin Elmer, Waltham, Mass.). The quantity of free HIV-1 p24 antigen in the sample was determined by comparing its absorbance at 490 nm to that of control standards.
Fresh human monocytes were infected with the BaL strain of HIV-1 in the presence of test compounds. After seven days in culture, HIV-1 replication was evaluated by measurement of HIV-1 viral capsid protein (p24) in the tissue culture supernatant (Table 7). […] A TI was calculated as described above using TC50 values derived from cell toxicity data in response to test compounds in the absence of viral infection.

[4] = test system: PBMCs; experiment: PBMC cytotoxicity (XTT); type: cell-based, human; settings: 7 days
Protocol: Mononuclear cells were isolated from fresh human peripheral blood cells by Ficoll-Hypaque density gradient by centrifugation at 600 g for 30 minutes. Banded peripheral blood mononuclear cells (PBMCs) were aspirated from the resulting interface and washed with phosphate buffered saline by low speed centrifugation. Cell viability was evaluated by Trypan Blue dye exclusion. […] Plates were incubated at 37° C., 5% CO2 for 7 days prior to cytotoxicity evaluation. XTT measurement for cytotoxicity.

[5] = test system: monocyte-derived dendritic cells; experiment: Cytotoxicity in monocyte-derived dendritic cells (XTT); type: cell-based, human
Excerpt: Cell viability is directly proportional to the amount of reduced XTT product formed.

[6] = test system: Caco-2 cells; experiment: Bi-directional permeability in Caco-2 monolayers
Protocol: Absorption properties of various compounds were measured using bi-directional permeability assays in Caco-2 cells. […] The efflux ratio is calculated as the ratio of the Papp(B→A)/Papp(A→B).

[7] = test system: cynomolgus monkey hepatocytes; experiment: Metabolic stability in cynomolgus monkey hepatocytes; type: in vitro ADME; settings: 0.1 uM
[8] = molecular target: CYP2D6 (Homo sapiens (Human), UniProt P10635); experiment: CYP450 inhibition in human liver microsomes: CYP2D6
Sequence of CYP2D6 (P10635 whole entry): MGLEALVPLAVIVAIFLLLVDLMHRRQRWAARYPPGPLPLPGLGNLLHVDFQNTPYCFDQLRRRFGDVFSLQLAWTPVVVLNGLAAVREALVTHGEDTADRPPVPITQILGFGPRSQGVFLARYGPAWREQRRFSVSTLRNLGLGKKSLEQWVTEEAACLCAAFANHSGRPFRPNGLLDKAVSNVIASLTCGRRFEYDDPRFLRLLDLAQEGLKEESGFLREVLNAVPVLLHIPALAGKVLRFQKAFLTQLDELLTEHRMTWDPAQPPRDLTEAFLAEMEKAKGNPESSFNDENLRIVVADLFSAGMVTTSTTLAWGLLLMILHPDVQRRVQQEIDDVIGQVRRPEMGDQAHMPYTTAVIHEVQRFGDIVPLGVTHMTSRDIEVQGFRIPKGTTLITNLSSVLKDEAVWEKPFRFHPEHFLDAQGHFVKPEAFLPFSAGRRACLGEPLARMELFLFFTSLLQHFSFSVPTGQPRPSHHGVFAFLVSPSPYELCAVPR

[9] = dendritic cells, first determination, read-out: EC50 First
[10] = dendritic cells, mean of three, read-out: Mean EC50
[11] = dendritic cells, second determination, read-out: EC50 Second
[12] = dendritic cells, third determination, read-out: EC50 Third
[13] = read-out: PBMC/HIV-1HT/92/599 EC50 ± SD, seven days, reverse transcriptase activity
[14] = seven days, p24, read-out: Monocyte/HIV-1BaL EC50
[15] = Caco-2 monolayers, apical to basolateral
[16] = read-out: CYP2D6 IC50 Dextromethorphan, probe substrate dextromethorphan

| SMILES | EC50 [1, 9] [nM] | EC50 [1, 10] [nM] | EC50 [1, 11] [nM] | EC50 [1, 12] [nM] | EC50 [2, 13] | EC50 [3, 14] [nM] | XTT (PBMC) TC50 [4] [µM] | TC50 [5] [µM] | CLint ± SEM [7] [μL/min/10^6 cells] | t1/2 [7] [min] | A→B, ×10^−6 ([6]; human, Caco-2) [cm/s] | Efflux ratio (B→A/A→B) ([6]; Caco-2 monolayers) | IC50 [8, 16] [µM] | also measured |
| --- | --- | --- | --- | --- | --- | --- | --- | --- | --- | --- | --- | --- | --- | --- |
| COCCOCCOCCOCCOCCOc1ccc(C[C@H](NC(=O)O[C@H]2CO[C@H]3OCC[C@H]32)C(O)CN(CC(C)C)S(=O)(=O)c2ccc(N)cc2)cc1 (some centres unmarked) [mPEG5-O-Darunavir] | 60 | 56.7 | 60 | 50 | 90 ± 8 nM | 263 ± 155 | >400.0 | >200 | – | – | – | – | – | – |
| COCCOCCOCCOCCOCCOCCOCCNc1ccc(S(=O)(=O)N(CC(C)C)CC(O)[C@H](Cc2ccccc2)NC(=O)O[C@H]2CO[C@H]3OCC[C@H]32)cc1 (some centres unmarked) [mPEG7-N-Darunavir] | 70 | 63.3 | 40 | 80 | 73 ± 12 nM | 577 ± 423 | 381.3 | >200 | 0.286 ± 0.504 | 4850 | – | – | – | A→B, ×10^−6 [6, 15]: 0.32 cm/s |
| COCCOCCOCCOC(=O)NC(C(=O)NC(Cc1ccccc1)C(O)CN(Cc1ccc(-c2ccccn2)cc1)NC(=O)C(NC(=O)OC)C(C)(C)C)C(C)(C)C (centres unmarked) [mono-mPEG3-Atazanavir, {1-[N′-[2-Hydroxy-3-(2-{2-[2-(2-methoxy-ethoxy)-ethoxy]-ethoxycarbonylamino}-3,3-dimethyl-butyrylamino)-4-phenyl-butyl]-N′-(4-pyridin-2-yl-benzyl)-hydrazinocarbonyl]-2,2-dimethyl-propyl}-carbamic Acid Methyl Ester] | – | – | – | – | 30 nM and 20.4 nM and 20 nM and 18.7 nM | – | 338.9 | – | 21.0 ± 0.00203 | 65.9 | – | – | – | EC50 ([2]; Human immunodeficiency virus 1, PBMC, 168 h, read-out: PBMC/HIV-1HT/92/599 EC50 ± SD, seven days, reverse transcriptase activity): < 20 nM; IC50 [8]: > 25 µM |
| COC(=O)N[C@H](C(=O)N[C@@H](Cc1ccccc1)[C@@H](O)CN(Cc1ccc(-c2ccccn2)cc1)NC(=O)[C@@H](NC(=O)OC)C(C)(C)C)C(C)(C)C [Atazanavir, reference compound] | – | – | – | – | – | – | 109.4 | – | – | – | 2.04 | – | – | IC50 [8]: 14.9 µM |
| COCCOC(=O)NC(C(=O)NC(Cc1ccccc1)C(O)CN(Cc1ccc(-c2ccccn2)cc1)NC(=O)C(NC(=O)OC)C(C)(C)C)C(C)(C)C (centres unmarked) [mono-mPEG1-Atazanavir] | 0.16 | 0.183 | 0.25 | 0.14 | < 20 nM | < 20 | – | >1.0 | 70.3 ± 0.0027 | 19.7 | 1.25 | 26 | 18.3 | – |
| COCCOCCOCCOCCOCCOCCOC(=O)NC(C(=O)NC(Cc1ccccc1)C(O)CN(Cc1ccc(-c2ccccn2)cc1)NC(=O)C(NC(=O)OC)C(C)(C)C)C(C)(C)C (centres unmarked) [mono-mPEG6-Atazanavir] | 0.16 | 0.2 | 0.21 | 0.23 | 108 nM and 117 nM and 60 nM | 43.3 ± 20.4 | – | >1.0 | 0.245 ± 0.000245 | 5660 | 0.11 | 68 | > 25 | – |
| COCCOCCOCCOCCOCCOCCOCCOC(=O)NC(C(=O)NC(Cc1ccccc1)C(O)CN(Cc1ccc(-c2ccccn2)cc1)NC(=O)C(NC(=O)OC)C(C)(C)C)C(C)(C)C (centres unmarked) [mono-mPEG7-Atazanavir] | 0.13 | 4.03 | 11.7 | 0.25 | 163 ± 30 nM | 137 ± 60.1 | – | >1.0 | – | – | 0.10 | 52 | > 25 | – |
| COCCOCCOCCOCCOCCOC(=O)NC(C(=O)NC(Cc1ccccc1)C(O)CN(Cc1ccc(-c2ccccn2)cc1)NC(=O)C(NC(=O)OC)C(C)(C)C)C(C)(C)C (centres unmarked) [mono-mPEG5-Atazanavir] | 0.15 | 1.24 | 3.42 | 0.14 | – | 56.6 ± 12.2 | – | >1.0 | 13.8 ± 0.00163 | 100 | 0.12 | 88 | 22.2 | – |
| CC(C)CN(C[C@@H](O)[C@H](Cc1ccccc1)NC(=O)O[C@H]1CO[C@H]2OCC[C@H]21)S(=O)(=O)c1ccc(N)cc1 [Darunavir, reference compound] | – | – | – | – | – | – | 328.4 | >200 | – | – | – | – | – | EC50 ([1]; Human immunodeficiency virus 1, Dendritic cell, read-out: EC50 First, dendritic cells, first determination): 2 nM; EC50 ([1]; Human immunodeficiency virus 1, Dendritic cell, read-out: EC50 Second, dendritic cells, second determination): 3 nM; EC50 ([1]; Human immunodeficiency virus 1, Dendritic cell, read-out: EC50 Third, dendritic cells, third determination): 3 nM; EC50 ([1]; Human immunodeficiency virus 1, Dendritic cell, read-out: Mean EC50, dendritic cells, mean of three): 2.7 nM; EC50 ([3]; Human immunodeficiency virus 1, Monocyte, 168 h, read-out: Monocyte/HIV-1BaL EC50, seven days, p24): < 20 nM |
| COCCOCCOCCOc1ccc(C[C@H](NC(=O)O[C@H]2CO[C@H]3OCC[C@H]32)C(O)CN(CC(C)C)S(=O)(=O)c2ccc(N)cc2)cc1 (some centres unmarked) [mPEG3-O-Darunavir] | 0.17 | 5.9 | 0.84 | 16.7 | 27 ± 6 nM | 1030 ± 1450 | >400.0 | >200 | 8.53 ± 0.563 | 163 | – | 32 | – | A→B, ×10^−6 [6, 15]: 0.51 cm/s |
| COCCOCCOCCOCCOCCNc1ccc(S(=O)(=O)N(CC(C)C)CC(O)[C@H](Cc2ccccc2)NC(=O)O[C@H]2CO[C@H]3OCC[C@H]32)cc1 (some centres unmarked) [mPEG5-N-Darunavir] | 8 | 16.7 | 2 | 40 | < 20 nM and 33 nM | 303 ± 366 | 223.5 | >200 | 26.5 ± 0.942 | 52.3 | – | 21 | – | A→B, ×10^−6 [6, 15]: 1.07 cm/s |
